Molecules are shown by their SMILES. pEC50, pKd, pKi: −log10 of the molar value. Structures can show the parent of a compound that is named as a salt. Where two headings read alike, the source gives them in different places.

The values that follow come from patent publication US20020086860A1, “[1,4]Diazepino [6,7,1-jk] carbazoles and derivatives” (American Home Products Corporation, priority 2000, published 2002).

The target of data set [1] is T1, human 5-hydroxytryptamine2C (h5HT2C) receptor (Homo sapiens, UniProt P28335).
T1 construct: expressed in transfected cells; host or cells: CHO (Chinese Hamster Ovary) cells; membrane preparation
T1 sequence (P28335 33-458): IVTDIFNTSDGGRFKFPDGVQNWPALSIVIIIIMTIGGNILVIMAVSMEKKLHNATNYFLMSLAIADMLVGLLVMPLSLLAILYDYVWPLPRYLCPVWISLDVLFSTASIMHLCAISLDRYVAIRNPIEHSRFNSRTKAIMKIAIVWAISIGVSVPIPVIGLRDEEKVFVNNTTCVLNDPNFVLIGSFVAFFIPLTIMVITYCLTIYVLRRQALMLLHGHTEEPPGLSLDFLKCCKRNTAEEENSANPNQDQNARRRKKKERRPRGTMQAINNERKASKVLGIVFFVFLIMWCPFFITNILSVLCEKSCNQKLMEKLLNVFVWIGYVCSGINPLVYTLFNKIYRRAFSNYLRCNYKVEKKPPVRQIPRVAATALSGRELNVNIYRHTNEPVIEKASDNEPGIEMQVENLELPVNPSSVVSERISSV
The experiment in a line: 5HT2C Receptor Binding Test Procedure ([125I]DOI displacement, CHO cell membranes).

The target of data set [2] is T2, human 5-HT2C receptor (Homo sapiens, UniProt P28335).
T2 sequence (P28335 33-458): T1 sequence (P28335 33-458)
Briefly: Stimulation of [3H] Inositol Monophosphate production by 5HT2C agonists in transfected CHO cells. Conditions: for Emax: CHO, read-out: 5HT2C % Emax (5HT, 100%).
Procedure: One (1) ml of maintenance medium containing 1 μCi/ml myo-[^3H] inositol was added to each well. After 48 hours labeling, the cells were washed once with 0.5 ml DMEM containing 25 mM HEPES and 10 mM LiCl, then preincubated with the medium for 30 min (antagonists were included in this period if tested). At the end of the preincubation, the medium was removed, the cells were then incubated with test compounds (in presence of antagonists if needed) for 30 min. The reaction was terminated by removal of the incubation solution and addition of 0.5 ml ice-cold 5% PCA, followed by 15 to 30 min incubation on ice. 200 μl of 0.5 M Tes/1.5 M K2CO3 was added to each well to neutralize to pH 7, and plates were left on ice for another 15 to 30 min to precipitate all salts. The liquid and solid phases were separated by centrifugation.
A portion (350 μl) of the upper aqueous phase was applied to Dowex AG-1×8 (formate form, 100-200 mesh) columns. The columns were then washed stepwise with 10 ml of water and 10 ml of 25 mM ammonium formate to remove free myo-[^3H]inositol and deacylated phosphoinositol, respectively. Finally 10 ml of 0.2 M ammonium formate solution was applied to the columns to elute [^3H] inositol monophosphate ([^3H] IP1) directly into scintillation vials. Of this eluate, 1 ml was used to determine radioactivity by scintillation counting.
A 3-parameter logistic function is used to generate estimate of EC50/IC50.

Data set [3] has as its system male Sprague-Dawley rats. The experiment in a line: Effects of Compounds on Feeding Behavior in Rats (food intake, 24 hr fast). The format is in vivo. Conditions: Rattus norvegicus, ip, dose giving 50% reduction in food intake, read-out: ED50 (mg/kg), 5HT2C Food Intake in Rats. On the procedure:
Effects of Compounds on Feeding Behavior in Rats
Eight (8) male Sprague-Dawley rats weighing 150-180 g were separated into individual cages and acclimated to a powdered diet for 2 weeks. During this period and throughout the test procedure, the food cup and the animals were weighed daily. Following the acclimation period, animals were fasted for 24 hours and then injected with either vehicle or one of 4 doses of the test compound. Food intake was assessed at 2 and 24 hours following compound administration. Compounds to be evaluated were injected 1-2× per week until all animals had received all doses of the test compound. The order of doses were chosen using to a modified Latin Square design. Additional studies may be conducted in satieted rats at the start of the dark cycle. Compounds were injected i.p, s.c. or p.o. At the end of the study effects of the test compound on food intake was evaluated using a repeated measures ANOVA. Data were collected were 2 hour food intake (g). Data were subjected to one-way ANOVA with posthoc t-tests to assess group differences. Where appropriate, ED50 values were calculated.

In data set [4] the test system is several animal species and humans. Conditions: Cowen et al. 1995; cited from earlier work.
Where [5] appears, read: read-out: Ki value and 95% confidence interval (reference compounds).

For `CSc1ccc2c(c1)C(N1CCN(C)CC1)Cc1ccccc1S2` (centres unmarked) [Methiothepin], the negative logarithm of the Ki (pKi) in data set [1] ([125I]DOI binding, h5HT2C in CHO membranes, 95% confidence interval in brackets, read-out: Ki value and 95% confidence interval (reference compounds)) was 8.34.

In data set [1], `CC1(C)CCc2c(c3cccc4c3n2CCNC4)C1` [Example 4, 9,9,Dimethyl-1,2,3,4,8,9,10,11-octahydro[1,4]diazepino[6,7,1-jk]carbazole] showed a pKi of 6.61.

The compound `CC1(C)Cc2c(c3cccc4c3n2CCNC4)C(C)(C)C1` [Example 3, 8,8,10,10-Tetramethyl-1,2,3,4,8,9,10,11-octahydro[1,4]diazepino[6,7,1-jk]carbazole] showed a pKi in data set [1] of 7.14.

In turn, `CC[C@@H](CO)NC(=O)[C@@H]1C=C2c3cccc4c3c(cn4C)C[C@H]2N(C)C1` [Methysergide] had a pKi in data set [1] of 8.20.

Regarding `CN1CCN(C2=Nc3ccccc3Oc3ccc(Cl)cc32)CC1` [Loxapine], the pKi in data set [1] (setting [5]) was 7.48.

In data set [1], `Clc1cc2c3c(c1)c1c(n3CCNC2)CCCC1` [Example 5, 6-Chloro-1,2,3,4,8,9,10,11-octahydro[1,4]diazepino[6,7,1-jk]cabazole] showed a negative-log Ki (pKi) of 6.45.

Regarding `c1cc2c3c(c1)C1CCCCC1N3CCNC2` (centres unmarked) [Example 2, 1,2,3,4,7b,8,9,10,11,11a-Decahydro-[1,4]diazepino[6,7,1-jk]carbazole], in data set [2], the pEC50 is 6.68 and the Emax was 70%. In data set [1], this compound gave a pKi of 7.04.

With `Cc1nc2sccn2c(=O)c1CCN1CCC(=C(c2ccc(F)cc2)c2ccc(F)cc2)CC1` [Ritanserin], the pKi in data set [1] (setting [5]) was 8.70.

Regarding `COc1cc(CC(C)N)c(OC)cc1I` (centres unmarked) [[^125I] DOI], in data set [1] (read-out: dissociation constant, KD of [125I] DOI at the human serotonin 5HT2C receptor, saturation binding with increasing concentrations of [125I] DOI), the negative-log Kd (pKd) was 9.40.

Turning to `c1cc2c3c(c1)c1c(n3CCNC2)CCCC1` [Example 1, 1,2,3,4,8,9,10,11-Octahydro-[1,4]diazepino[6,5,4-jk]carbazole], the ED50 in data set [3] was 20.9 mg/kg. Besides, in data set [2], the negative-log EC50 (pEC50) was 6.37 and the maximal response (Emax) came to 90%.

As to `Clc1cccc(N2CCNCC2)c1` [mCPP, meta-chlorophenylpiperazine], in data set [4], the “effect on food intake” value is “decreases food intake”.

`CCN1CCn2c3c(c4cc(Cl)cc(c42)C1)CCCC3` [Example 9, 6-Chloro-3-ethyl-1,2,3,4,8,9,10,11-octahydro[1,4]diazepino[6,5,4-jk]carbazole]: in data set [1], the “5HT2C Affinity DOI/Agonist binding, inhibition @ 1 μM” value is reported as 55%.

In turn, `c1cc2c3c(c1)C1CCCCC1N3CCNC2` (centres unmarked) (as salt: hydrochloride) [Example 2, 1,2,3,4,7b,8,9,10,11,11a-Decahydro-[1,4]diazepino[6,7,1-jk]carbazole] gave a melting point of 265 to 269 °C.

Broadly, the pKi is the Ki on a negative log10 scale, so that one unit is a factor of ten. For orientation: pEC50 means the EC50 on a negative log10 scale, so that one unit is a factor of ten. A higher pEC50 goes with a low EC50. A word on the Emax: it is the maximal effect, on the per cent scale that the assay sets. Usually pKd stands for −log10 of the Kd, conventionally taken in molar units. A word on the melting point: it is the temperature of the solid-liquid transition.
